{"source": "patent US7803779B2", "about": "“Drugs for the treatment and/or prophylaxis of gastroparesis symptom” (Chugai Seiyaku Kabushiki Kaisha, priority 2005, dated 2010)", "key": {"[1]": {"test_system": "patients with gastroparesis", "settings": "383 patients, both delayed and non-delayed gastric emptying; cited from earlier work"}, "gastric emptying": {"test_system": "gastric emptying", "settings": "clinical; cited from earlier work"}, "[2]": {"test_system": "diabetic patients with a longer-than-ten-year history of diabetes with a normal level of gastric emptying", "assay": "Effect of GM-611 on gastroparesis symptom in diabetic patients of diabetic history longer than 10 years with a normal level of gastric emptying (Example 4, FIG. 4)", "format": "in vivo, human", "excerpt": "FIG. 4, which is titled “Effect of GM-611 on gastroparesis symptom in diabetic patients of diabetic history longer than 10 years with a normal level of gastric emptying”, is a graph showing results of evaluating the percentage of responders who were in the diabetic patients of diabetic history longer than 10 years with the gastroparesis symptom regardless a normal level of gastric emptying and who perceived an adequate relief of gastroparesis symptom by the administration of the therapeutic and/or preventive agent against gastroparesis symptom according to the present invention; M1R (month 1 responder) refers to patients who had adequate relief in at least 50% of weekly evaluations for the first one month of medication and CR (complete responder) refers to patients who were evaluated as monthly responder for three consecutive months.\n(§1) In the following examples, GM-611 (8,9-didehydro-N-demethyl-9-deoxo-6,11-dideoxy-6,9-epoxy-12-O-methyl-N-(1-methylethyl)-11-oxoerythromycin,(2E)-2-butenedioate) was used as a compound of the formula (1). This compound was synthesized in the laboratories of Chugai Pharmaceutical Co., Ltd. as described in WO02/18403 and WO02/30943. To evaluate the efficacy of GM-611 in improving subjective gastroparesis symptom, diabetic patients on insulin therapy were selected. […]\n(§2) In order to assess the efficacy of GM-611 in improving subjective gastroparesis symptom, diabetic patients who were presenting with gastroparesis symptom despite a normal level of gastric emptying were selected. […] All assessment in the subjective gastroparesis symptom was evaluated by an electric diary by phone. Starting one week after the initiation of medication, the patients were interviewed every week and asked whether in the past 7 days, you have had adequate relief of your gastroparesis symptoms, and the yes/no answers were recorded. […] Patients who were evaluated as monthly responder for three consecutive months. were assigned as “complete responders” (CR). […]"}, "[3]": {"test_system": "patients of type 1 diabetes with gastroparesis symptom and a normal level of gastric emptying", "assay": "Effect of GM-611 on gastroparesis symptom in patients of type 1 diabetes with a normal level of gastric emptying (Example 2, FIG. 2)", "format": "in vivo, human", "settings": "type 1 diabetes patients only", "excerpt": "FIG. 2, which is titled “Effect of GM-611 on gastroparesis symptom in patients of type 1 diabetes with a normal level of gastric emptying”, is a graph showing results of evaluating the percentage of responders who were in the patients of type 1 diabetes with the gastroparesis symptom regardless a normal level of gastric emptying and who perceived an adequate relief of gastroparesis symptom by the administration of the therapeutic and/or preventive agent against gastroparesis symptom according to the present invention; M1R (month 1 responder) refers to patients who had adequate relief in at least 50% of weekly evaluations for the first one month of medication and CR (complete responder) refers to patients who were evaluated as monthly responder for three consecutive months.\n(§3) In the following examples, GM-611 (8,9-didehydro-N-demethyl-9-deoxo-6,11-dideoxy-6,9-epoxy-12-O-methyl-N-(1-methylethyl)-11-oxoerythromycin,(2E)-2-butenedioate) was used as a compound of the formula (1). This compound was synthesized in the laboratories of Chugai Pharmaceutical Co., Ltd. as described in WO02/18403 and WO02/30943. To evaluate the efficacy of GM-611 in improving subjective gastroparesis symptom, diabetic patients on insulin therapy were selected. Since the analyses in the following examples were after the key-open of clinical trial, P<0.01 in a two-tail test was considered to show a significant effect and P<0.1 a tendency.\nas §2"}, "[4]": {"test_system": "diabetic patients presenting with gastroparesis symptom despite a normal level of gastric emptying", "assay": "Effect of GM-611 on gastroparesis symptom in diabetic patients with a normal level of gastric emptying (Example 1, FIG. 1)", "format": "in vivo, human", "excerpt": "FIG. 1, which is titled “Effect of GM-611 on gastroparesis symptom in diabetic patients with a normal level of gastric emptying”, is a graph showing results of evaluating the percentage of responders who were in the patients the gastroparesis symptom regardless a normal level of gastric emptying and who perceived an adequate relief of gastroparesis symptom by the administration of the therapeutic and/or preventive agent against gastroparesis symptom according to the present invention; M1R (month 1 responder) refers to patients who had adequate relief in at least 50% of weekly evaluations for the first one month of medication and CR (complete responder) refers to patients who were evaluated as monthly responder for three consecutive months.\nas §3\nIn order to assess the efficacy of GM-611 in improving subjective gastroparesis symptom, diabetic patients who were presenting with gastroparesis symptom despite a normal level of gastric emptying were selected. […] All assessment in the subjective gastroparesis symptom was evaluated by an electric diary by phone. Starting one week after the initiation of medication, the patients were interviewed every week and asked whether in the past 7 days, you have had adequate relief of your gastroparesis symptoms, and the yes/no answers were recorded. […] Patients who were evaluated as monthly responder for three consecutive months. were assigned as “complete responders” (CR)."}, "[5]": {"test_system": "diabetic patients with good glycemic control (hemoglobin A1C no more than 8%) with a normal level of gastric emptying", "assay": "Effect of GM-611 on gastroparesis symptom in diabetic patients of good glycemic control with a normal level of gastric emptying (Example 3, FIG. 3)", "format": "in vivo, human", "excerpt": "FIG. 3, which is titled “Effect of GM-611 on gastroparesis symptom in diabetic patients of good glycemic control with a normal level of gastric emptying”, is a graph showing results of evaluating the percentage of responders who were in the diabetic patients with good glycemic control with the gastroparesis symptom regardless a normal level of gastric emptying and who perceived an adequate relief of gastroparesis symptom by the administration of the therapeutic and/or preventive agent against gastroparesis symptom according to the present invention; M1R (month 1 responder) refers to patients who had adequate relief in at least 50% of weekly evaluations for the first one month of medication and CR (complete responder) refers to patients who were evaluated as monthly responder for three consecutive months.\nas §1, §2"}}, "note": "“Also recorded” adds a separate entry of the source."}
{"smiles": "CC[C@H]1OC(=O)[C@H](C)[C@@H](O[C@H]2C[C@@](C)(OC)C[C@H](C)O2)[C@H](C)[C@@H](O[C@@H]2O[C@H](C)C[C@H](N(C)CC)[C@H]2O)[C@@]2(C)CC(C)=C(O2)[C@H](C)[C@@H](O)[C@H]1C", "note": "[ABT-229]", "values": [{"measurement": "efficacy on gastroparesis symptom", "setting": "[1]", "value": "no efficacy"}, {"measurement": "acceleration of gastric emptying", "setting": "gastric emptying", "value": "capable of accelerating gastric emptying"}]}
{"smiles": "CC[C@H]1OC(=O)[C@H](C)[C@@H](O[C@H]2C[C@@](C)(OC)[C@@H](O)[C@H](C)O2)[C@H](C)[C@@H](O[C@@H]2O[C@H](C)C[C@H](N(C)C(C)C)[C@H]2O)[C@@]2(C)CC(C)=C(O2)[C@H](C)C(=O)[C@]1(C)OC.O=C(O)/C=C/C(=O)O", "note": "[GM-611, 8,9-didehydro-N-demethyl-9-deoxo-6,11-dideoxy-6,9-epoxy-12-O-methyl-N-(1-methylethyl)-11-oxoerythromycin,(2E)-2-butenedioate]", "values": [{"measurement": "P, CR rate in whole GM-611 treated group vs. placebo group by chi-square test", "setting": "[2]", "value": 0.001}, {"measurement": "dose dependency of efficacy", "setting": "[2]", "value": "dose-dependent manner"}, {"measurement": "efficacy in improving the symptom", "setting": "[2]", "value": "significant efficacy in improving the symptom"}, {"measurement": "P, CR rate in whole GM-611 treated group vs. placebo group by chi-square test", "setting": "[3]", "value": 0.001}, {"measurement": "dose dependency of efficacy", "setting": "[3]", "value": "dose-dependent"}, {"measurement": "efficacy in improving the symptom", "setting": "[3]; normal gastric emptying", "value": "significant"}, {"measurement": "dose dependency of efficacy", "setting": "[4]", "value": "no apparent dose dependency"}, {"measurement": "P, CR rate in whole GM-611 treated group vs. placebo group by chi-square test", "setting": "[4]; complete responders, 3 months", "value": 0.025}, {"measurement": "percentage of responders who had adequate relief in gastroparesis symptom vs placebo group", "setting": "[4]; twice daily at meals for 3 months, both GM-611 groups", "value": "greater than those in the placebo group; also recorded: only a tendency to improve the symptom"}, {"measurement": "P, CR rate in whole GM-611 treated group vs. placebo group by chi-square test", "setting": "[5]", "value": 0.010}, {"measurement": "dose dependency of efficacy", "setting": "[5]", "value": "dose-dependent manner"}, {"measurement": "efficacy in improving the symptom", "setting": "[5]", "value": "significant efficacy in improving the symptom"}]}
